BindingDB's records for doi:10.1021/jm030092d (Research Triangle Institute, 2003)

Test: Inhibition of binding of [3H]DADLE to Opioid receptor delta 1 in guinea pig membranes

Compound | Ki [nM]
C[C@H]1CN(CC[C@H](O)C2CCCCC2)CC[C@@]1(C)c1cccc(O)c1 [3-[1-(3-Cyclohexyl-3-hydroxy-propyl)-3,4-dimethyl-piperidin-4-yl]-phenol] | 198
C[C@H]1CN(C/C=C/c2ccccc2)CC[C@@]1(C)c1cccc(O)c1 [3-[(3R,4R)-3,4-Dimethyl-1-((E)-3-phenyl-allyl)-piperidin-4-yl]-phenol] | 322
C[C@H]1CN(C/C=C/c2ccccc2Cl)CC[C@@]1(C)c1cccc(O)c1 [3-{(3R,4R)-1-[(E)-3-(2-Chloro-phenyl)-allyl]-3,4-dimethyl-piperidin-4-yl}-phenol] | 168
Cc1ccccc1/C=C/CN1CC[C@@](C)(c2cccc(O)c2)[C@@H](C)C1 [RTI-5989-25] | 142
